Legend:
rat Cyp 3A2 = target: T1, rat Cyp 3A2 (Rattus norvegicus, UniProt P05183); experiment: Recombinant rat Cyp phenotype profiling, 3A2; format: in vitro ADME; settings: 60 min
T1 construct: purchased BD Gentest; host or cells: baculovirus infected insect cells
Procedure: (§1) Identification of the drug metabolizing enzymes (DMEs) of A-998679 was studied in cDNA expressed recombinant enzymes prepared from baculovirus infected insect cells over-expressing rat Cyp isoforms (BD Gentest, Woburn, MA) as listed in Table 2. Incubations were conducted in duplicate using Supersomes. The incubation mixture contained 100 pmol/ml of enzymes, except for Cyp1a1 (200 pmol/ml), 0.1 or 0.21 μM of [^3H]A-998679 in 100 mM phosphate buffer (pH 7.4). Reactions were initiated with the addition of NADPH at a final concentration of 1 mM and incubated at 37°C for 60 min. At the end of the incubation period, the incubations were terminated by the addition of acetonitrile/ethanol (50/50, v/v) solution. Insect control samples lacking expressed enzyme were used as negative control. The degree of metabolism of A-998679 was assessed by percent of parent remaining using the radio-HPLC method described below.
(§2) Radiolabeled components from the above assays were profiled following separation by HPLC with on line radioflow detector. The system consisted of an Agilent 1100 Series quaternary pump and autosampler connected to a Packard 500TR flow scintillation detector. The data were processed using the Radiomatic™ Flo-one® software v3.65. The scintillant (Perkin Elmer FLO-SCINT™ III) flow was maintained at 3 ml/min. […]

rat Cyp 2E1 = target: T2, rat Cyp 2E1 (Rattus norvegicus, UniProt P05182); experiment: Recombinant rat Cyp phenotype profiling, 2E1; format: in vitro ADME; settings: 60 min
T2 construct: purchased BD Gentest; host or cells: baculovirus infected insect cells
Procedure: as §1, §2

CYP3A4 = target: T3, CYP3A4 (Homo sapiens, UniProt P08684); experiment: CYP inhibition evaluation in human liver microsomes, CYP3A4 (midazolam); format: in vitro ADME; settings: probe substrate midazolam
T3 construct: from tissue; host or cells: human liver microsomes
Procedure: Incubations were performed in human liver microsomes using probe substrate concentrations similar to their corresponding Km values. Enzyme activity was evaluated in the presence of various concentrations of A-998679. The incubations consisted of the test article at varying concentrations (0–30 μM), probe substrate (concentration ~Km, see Table A2), human liver microsomal protein and 1 mM NADPH in 50 mM phosphate buffer at pH 7.4. Relative quantitation of the metabolites was obtained by LC-MS/MS using an ABSciex (Foster City, CA) API3000 or API4000 Qtrap hybrid linear ion trap mass spectrometer equipped with a TurboIonspray source using either PerkinElmer series 200 pumps or Agilent 1100 series pump with a Leap autosampler. Analytes were separated using a Phenomenex Prodigy ODS(3) 5 μm, 50 × 2.0 mm column at 50°C, eluted and detected under the specific conditions listed in Tables A3, A4, and A5. The analyte to internal standard peak area ratios were determined using Analyst 1.4 software (Applied Biosytems, Carlsbad, CA). The peak area ratios observed in the presence of test article were compared to the vehicle control in order to determine percent activity. To determine the IC50, the data were plotted as Log [dose] μM vs. % inhibition, and analyzed with a sigmoidal dose-response (variable slope) fitting equation. […]

[1] = 5-day oral rat study, pharmacokinetic analysis of plasma exposure; format: in vivo
Procedure: All animal experiments were conducted in accordance with the Guiding Principles in the Use of Animals in Toxicology (http://www.toxicology.org/ai/air/air6.asp) and were approved by Abbott's Institutional Animal Care and Use Committee (IACUC). Male Sprague-Dawley rats [Crl:CD®(SD)IGS BR], weighing ~250 g at study initiation were obtained from Charles River Laboratories, Inc. (Wilmington, MA). Rats were housed singly in ventilated, stainless steel, wire-bottom hanging cages and fed non-certified Rodent Chow (Harlan Labs, Madison, WI), and water ad libitum and acclimated for at least 5 days after arrival. Rats were randomly assigned to various treatment groups (3 rats/group) and were dosed once daily by oral gavage with vehicle (0.2% hydroxypropylmethylcellulose at a dose volume of 10 ml/kg) or with 30, 100, or 200 mg/kg of A-998679. All rats were fasted overnight after their last dose, weighed and sacrificed under isoflurane anesthesia. For histopathological evaluation, liver, heart, kidney, spleen, bone (sternum) with marrow, gastrointestinal tract (duodenum with pancreas, jejunum, ileum, cecum, and colon), thymus, and lung were fixed in formalin, routinely processed, and embedded in paraffin. Paraffin sections (4 μm) were stained with hematoxylin and eosin. Liver and small intestine (jejunum) were also flash frozen in liquid nitrogen and stored at −80°C until processing for gene expression profiling. Serum clinical chemistry parameters were quantified using an Aeroset Clinical Chemistry Analyzer (Abbott Laboratories, Abbott Park, IL) and included alanine amino transferase (ALT), aspartate amino transferase (AST), gamma glutamyltransferase (GGT), and alkaline phosphatase (ALP) activities.
Serial blood samples were obtained from a tail vein of each rat 0.5, 1.5, 3, 6, 9, 12, and 24 h after drug administration on the first and last day of dosing. Plasma was separated by centrifugation and stored frozen prior to analysis. A-998679 was separated from the plasma using protein precipitation with acetonitrile. A-998679 and the internal standard were separated from co-extracted contaminants on a 50 × 3 mm Betasil CN column (Thermosystem) with an acetonitrile: 10 mM ammonium acetate mobile phase (35:65, by volume) at a flow rate of 0.4 ml/min at ambient temperature. Concentrations of A-998679 in the plasma extracts were determined by HPLC-MS/MS (API2000; Applied Biosystems). Peak plasma concentrations (Cmax) and the time to peak plasma concentration (Tmax) were read directly from the plasma concentration data for each rat. A-998679 plasma concentration data were submitted to multi-exponential curve fitting using WinNonlin. The area under the plasma concentration-time curve from 0 to t hours (time of the last measurable plasma concentration) after dosing (AUC0-t) was calculated using the linear trapezoidal rule for the plasma concentration-time profiles. The residual area extrapolated to infinity, determined as the final measured plasma concentration (Ct) divided by the terminal elimination rate constant (β), was added to AUC0-t to produce the total area under the curve (AUC0-∞).

[2] = 30 and 100 mg/kg/day, data not shown

T1 sequence (P05183 whole entry): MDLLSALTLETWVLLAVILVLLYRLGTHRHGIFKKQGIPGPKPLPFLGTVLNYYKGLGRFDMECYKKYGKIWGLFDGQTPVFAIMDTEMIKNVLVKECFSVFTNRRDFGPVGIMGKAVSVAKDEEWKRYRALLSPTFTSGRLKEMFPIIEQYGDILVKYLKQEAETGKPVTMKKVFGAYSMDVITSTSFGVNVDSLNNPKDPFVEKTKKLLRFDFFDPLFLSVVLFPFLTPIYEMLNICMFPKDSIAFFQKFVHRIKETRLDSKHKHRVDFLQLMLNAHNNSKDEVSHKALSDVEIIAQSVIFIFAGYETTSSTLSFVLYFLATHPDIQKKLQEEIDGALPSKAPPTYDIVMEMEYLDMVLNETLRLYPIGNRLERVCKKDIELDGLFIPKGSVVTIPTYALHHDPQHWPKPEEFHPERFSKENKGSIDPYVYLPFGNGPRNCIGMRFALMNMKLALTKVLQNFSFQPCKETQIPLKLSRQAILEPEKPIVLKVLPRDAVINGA
T2 sequence (P05182 whole entry): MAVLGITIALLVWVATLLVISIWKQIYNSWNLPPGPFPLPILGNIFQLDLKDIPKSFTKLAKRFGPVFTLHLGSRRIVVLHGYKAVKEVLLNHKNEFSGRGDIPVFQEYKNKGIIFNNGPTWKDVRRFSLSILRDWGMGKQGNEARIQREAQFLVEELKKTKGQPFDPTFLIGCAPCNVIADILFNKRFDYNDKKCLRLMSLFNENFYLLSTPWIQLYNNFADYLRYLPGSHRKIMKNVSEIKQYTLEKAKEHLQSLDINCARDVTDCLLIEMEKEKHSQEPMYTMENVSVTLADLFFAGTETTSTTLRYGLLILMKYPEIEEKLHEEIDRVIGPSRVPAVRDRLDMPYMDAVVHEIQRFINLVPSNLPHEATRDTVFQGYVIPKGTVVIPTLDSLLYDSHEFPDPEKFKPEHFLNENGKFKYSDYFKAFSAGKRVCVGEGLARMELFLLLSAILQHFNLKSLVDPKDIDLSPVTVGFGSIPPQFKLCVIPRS
T3 sequence (P08684 whole entry): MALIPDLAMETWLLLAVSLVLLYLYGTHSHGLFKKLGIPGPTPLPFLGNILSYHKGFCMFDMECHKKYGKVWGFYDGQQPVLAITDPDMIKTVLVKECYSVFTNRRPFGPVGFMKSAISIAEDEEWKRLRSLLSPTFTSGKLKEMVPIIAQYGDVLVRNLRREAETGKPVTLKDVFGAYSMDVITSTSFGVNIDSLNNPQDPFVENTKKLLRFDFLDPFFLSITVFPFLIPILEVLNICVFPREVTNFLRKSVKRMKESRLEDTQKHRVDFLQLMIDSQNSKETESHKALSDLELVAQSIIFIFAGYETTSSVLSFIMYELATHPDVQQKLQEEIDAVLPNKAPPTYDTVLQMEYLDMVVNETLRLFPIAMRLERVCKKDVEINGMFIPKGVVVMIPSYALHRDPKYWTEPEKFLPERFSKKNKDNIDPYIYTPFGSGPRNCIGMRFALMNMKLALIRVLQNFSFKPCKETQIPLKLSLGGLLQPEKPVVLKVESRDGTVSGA

N#Cc1cccc(-c2noc(-c3cccnc3)n2)c1 [A-998679, 3-(5-pyridin-3-yl-1,2,4-oxadiazol-3-yl) benzonitrile]
% parent remaining (rat Cyp 3A2; recombinant rat Cyp 3A2, 0.10 μM): 100% | % parent remaining (rat Cyp 3A2; recombinant rat Cyp 3A2, 0.21 μM): 94.2% | % parent remaining (rat Cyp 2E1; recombinant rat Cyp 2E1, 0.10 μM): 95.5% | % parent remaining (rat Cyp 2E1; recombinant rat Cyp 2E1, 0.21 μM): 91.9% | IC50 (CYP3A4): > 30 µM | decline in Cmax after 5 days of dosing compared to the first day ([1]; 30 mg/kg/day, day 5 vs day 1): 88% | decrease in plasma AUC after 5 days of dosing ([1]; 30 mg/kg/day, day 5 vs day 1): 95% | decline in Cmax after 5 days of dosing compared to the first day ([1]; 100 mg/kg/day, day 5 vs day 1): 53% | decrease in plasma AUC after 5 days of dosing ([1]; 100 mg/kg/day, day 5 vs day 1): 80% | change in AUC after 5 days of dosing ([1]; 200 mg/kg/day, day 5 vs day 1): no change | change in Cmax after 5 days of dosing ([1]; 200 mg/kg/day, day 5 vs day 1): no change | change in Tmax after 5 days of dosing [1, 2]: decrease | change in t1/2 after 5 days of dosing [1, 2]: decrease | Cmax ([1]; male, Sprague-Dawley, plasma, 30 mg/kg): ~5 µM

— article PMC3481155, “AhR activation underlies the CYP1A autoinduction by A-998679 in rats” (Frontiers in Genetics, 2012)
